# Patent US9826761B2, “Compositions and methods for mitigating dietary sulfur in animals” (SarTec Corporation, priority 2008, dated 2017)
# Key:
# [1] = Titration of approx. 200 mM sulfide in fresh rumen fluid with 1 M metal chloride, silver/sulfide electrode; design: species or system Holstein cows; conditions: for mVolts (Negative Value): ~200 mM sulfide, fresh rumen fluid
# Description: Fresh undiluted rumen fluid was obtained from rumen fistulated Holstein cows. 1.5 ml of a saturated solution of Na2S in water (approximately 2.7 M) was added to 18.5 ml of the rumen fluid. Sodium sulfide solutions were quantified by titration using a silver/sulfide electrode (Orion, Ion Plus Silver/Sulfide 9616BNWP) and a commercial lead standard (0.1 M Pb^2+, Orion 948206). The final concentration for sulfide ion in the rumen fluid was approximately 200 mM. This solution was then titrated with a 1 M solution of MnCl2 in water. The progress of the reaction was followed using the silver/sulfide electrode.
# Fresh undiluted rumen fluid was obtained from rumen fistulated Holstein cows. 1.5 ml of saturated solution of Na2S in water (approximately 2.7 M) was added to 18.5 ml of the rumen fluid. The final concentration of sulfide ion in the rumen fluid was approximately 200 mM. This solution was then titrated with a 1 M solution of FeCl2 in water. The progress of the reaction was followed using the same silver/sulfide electrode set-up described above (Orion, Ion Plus Silver/Sulfide 9616BNWP).
# Data taken from Examples 1 and 2 above were plotted together in order to gauge the relative efficacy of MnCl2 versus FeCl2 in removing sulfide ion from rumen fluid.
# [2] = Titration of approx. 200 mM sulfide in 24 hour old rumen fluid with 1 M MnCl2, BaCl2 or CaCl2, silver/sulfide electrode; design: species or system Holstein cows
# Description: 24 hour old undiluted rumen fluid from rumen fistulated Holstein cows was obtained. 4 ml of Na2S in water (approximately 1 M) was added to 16 ml of the rumen fluid. The final concentration of sulfide ion in the rumen fluid was approximately 200 mM. […] The progress of the reaction was followed using the same silver/sulfide electrode set-up described above (Orion, Ion Plus Silver/Sulfide 9616BNWP).
# [3] = Precipitating activity: rumen fluid containing manganese compound titrated with 1.0M Na2S, silver/sulfide electrode; design: species or system Holstein cows; conditions: for mVolts: 200 mM MnCl2 in rumen fluid
# Description: Next, 0.28 g of MnO(II) was placed in a 100 ml beaker and 20 ml of rumen fluid was added. Then 0.17 g of MnO2(IV) was placed in 100 ml beaker and 20 ml of rumen fluid was added. Each of these compositions, in addition to a rumen fluid control, was then titrated with a 1.0M solution of Na2S. The progress of the reaction was followed using the same silver/sulfide electrode set-up described above (Orion, Ion Plus Silver/Sulfide 9616BNWP).
# [4] = Effect of MnCl2 supplementation on cattle (feedlot trial); assay type: in vivo, Angus based feeder calves; conditions: feeder calves, approx. 0.55 g/head/day MnCl2 and 10.0 g/head/day FeCl2 in supplement with Yucca extract
# Description: In this example, forty-six Angus based feeder calves were blocked by sex (heifers and steers) and assigned within block to one of two treatments. One group (one pen of steers and one pen of heifers) was fed a commercially available feed additive including Yucca extract ([…] Corporation, Anoka, Minn.) mixed into the feedlot supplement. […] The supplement also contained minerals, vitamins, […]), and carrier feed products including corn, barley sprouts, and distillers grains. […] The results (DMI=dry matter intake, ADG=average daily gain) are shown below in Table 5.
substance,measurement,setting,value
manganese (II) chloride [MnCl2],concentration of sulfide ion within the rumen fluid,[1]; addition of 1 M titrant to ~200 mM sulfide in fresh rumen fluid,effective to reduce the concentration of sulfide ion
same,mVolts (Negative Value),[1]; titrant volume 0.0 of 1M MnCl2,952.6 mVolts
same,mVolts (Negative Value),[1]; titrant volume 0.3 of 1M MnCl2,950.5 mVolts
same,mVolts (Negative Value),[1]; titrant volume 0.5 of 1M MnCl2,947.7 mVolts
same,mVolts (Negative Value),[1]; titrant volume 0.7 of 1M MnCl2,947.8 mVolts
same,mVolts (Negative Value),[1]; titrant volume 0.9 of 1M MnCl2,940.4 mVolts
same,mVolts (Negative Value),[1]; titrant volume 1.1 of 1M MnCl2,929.7 mVolts
same,mVolts (Negative Value),[1]; titrant volume 1.4 of 1M MnCl2,918.4 mVolts
same,mVolts (Negative Value),[1]; titrant volume 1.6 of 1M MnCl2,899.9 mVolts
same,mVolts (Negative Value),[1]; titrant volume 1.8 of 1M MnCl2,882.2 mVolts
same,mVolts (Negative Value),[1]; titrant volume 2.0 of 1M MnCl2,861.5 mVolts
same,mVolts (Negative Value),[1]; titrant volume 2.3 of 1M MnCl2,850.2 mVolts
same,mVolts (Negative Value),[1]; titrant volume 2.5 of 1M MnCl2,830.5 mVolts
same,mVolts (Negative Value),[1]; titrant volume 2.7 of 1M MnCl2,808.9 mVolts
same,mVolts (Negative Value),[1]; titrant volume 2.9 of 1M MnCl2,777.1 mVolts
same,mVolts (Negative Value),[1]; titrant volume 3.2 of 1M MnCl2,735.7 mVolts
same,mVolts (Negative Value),[1]; titrant volume 3.4 of 1M MnCl2,702.0 mVolts
same,mVolts (Negative Value),[1]; titrant volume 3.6 of 1M MnCl2,686.7 mVolts
same,mVolts (Negative Value),[1]; titrant volume 3.9 of 1M MnCl2,678.2 mVolts
same,mVolts (Negative Value),[1]; titrant volume 4.1 of 1M MnCl2,672.4 mVolts
same,mVolts (Negative Value),[1]; titrant volume 4.3 of 1M MnCl2,667.8 mVolts
same,mVolts (Negative Value),[1]; titrant volume 4.5 of 1M MnCl2,664.4 mVolts
same,mVolts (Negative Value),[1]; titrant volume 4.7 of 1M MnCl2,661.8 mVolts
same,mVolts (Negative Value),[1]; titrant volume 4.9 of 1M MnCl2,658.9 mVolts
same,mVolts (Negative Value),[1]; titrant volume 5.2 of 1M MnCl2,656.6 mVolts
same,mVolts (Negative Value),[1]; titrant volume 5.4 of 1M MnCl2,654.6 mVolts
same,mVolts (Negative Value),[1]; titrant volume 6.0 of 1M MnCl2,649.8 mVolts
same,mVolts,"[2]; Volume 0.0 of 1.0M MnCl2, ~200 mM sulfide",934.0 mVolts
same,mVolts,"[2]; Volume 0.2 of 1.0M MnCl2, ~200 mM sulfide",931.7 mVolts
same,mVolts,"[2]; Volume 0.4 of 1.0M MnCl2, ~200 mM sulfide",931.6 mVolts
same,mVolts,"[2]; Volume 0.6 of 1.0M MnCl2, ~200 mM sulfide",930.7 mVolts
same,mVolts,"[2]; Volume 0.8 of 1.0M MnCl2, ~200 mM sulfide",929.4 mVolts
same,mVolts,"[2]; Volume 1.0 of 1.0M MnCl2, ~200 mM sulfide",926.6 mVolts
same,mVolts,"[2]; Volume 1.2 of 1.0M MnCl2, ~200 mM sulfide",921.4 mVolts
same,mVolts,"[2]; Volume 1.4 of 1.0M MnCl2, ~200 mM sulfide",906.6 mVolts
same,mVolts,"[2]; Volume 1.7 of 1.0M MnCl2, ~200 mM sulfide",903.0 mVolts
same,mVolts,"[2]; Volume 1.8 of 1.0M MnCl2, ~200 mM sulfide",863.5 mVolts
same,mVolts,"[2]; Volume 1.9 of 1.0M MnCl2, ~200 mM sulfide",855.2 mVolts
same,mVolts,"[2]; Volume 2.0 of 1.0M MnCl2, ~200 mM sulfide",848.1 mVolts
same,mVolts,"[2]; Volume 2.1 of 1.0M MnCl2, ~200 mM sulfide",841.7 mVolts
same,mVolts,"[2]; Volume 2.2 of 1.0M MnCl2, ~200 mM sulfide",834.5 mVolts
same,mVolts,"[2]; Volume 2.3 of 1.0M MnCl2, ~200 mM sulfide",829.2 mVolts
same,mVolts,"[2]; Volume 2.4 of 1.0M MnCl2, ~200 mM sulfide",823.9 mVolts
same,mVolts,"[2]; Volume 2.5 of 1.0M MnCl2, ~200 mM sulfide",817.9 mVolts
same,mVolts,"[2]; Volume 2.7 of 1.0M MnCl2, ~200 mM sulfide",811.4 mVolts
same,mVolts,"[2]; Volume 2.8 of 1.0M MnCl2, ~200 mM sulfide",804.0 mVolts
same,mVolts,"[2]; Volume 2.9 of 1.0M MnCl2, ~200 mM sulfide",794.9 mVolts
same,mVolts,"[2]; Volume 3.0 of 1.0M MnCl2, ~200 mM sulfide",783.1 mVolts
same,mVolts,"[2]; Volume 3.1 of 1.0M MnCl2, ~200 mM sulfide",767.9 mVolts
same,mVolts,"[2]; Volume 3.3 of 1.0M MnCl2, ~200 mM sulfide",746.6 mVolts
same,mVolts,"[2]; Volume 3.4 of 1.0M MnCl2, ~200 mM sulfide",733.1 mVolts
same,mVolts,"[2]; Volume 3.5 of 1.0M MnCl2, ~200 mM sulfide",718.3 mVolts
same,mVolts,"[2]; Volume 3.6 of 1.0M MnCl2, ~200 mM sulfide",704.2 mVolts
same,mVolts,"[2]; Volume 3.7 of 1.0M MnCl2, ~200 mM sulfide",694.2 mVolts
same,mVolts,"[2]; Volume 3.8 of 1.0M MnCl2, ~200 mM sulfide",687.0 mVolts
same,mVolts,"[2]; Volume 3.9 of 1.0M MnCl2, ~200 mM sulfide",679.7 mVolts
same,mVolts,"[2]; Volume 4.0 of 1.0M MnCl2, ~200 mM sulfide",674.1 mVolts
same,mVolts,"[2]; Volume 4.2 of 1.0M MnCl2, ~200 mM sulfide",670.1 mVolts
same,mVolts,"[2]; Volume 4.4 of 1.0M MnCl2, ~200 mM sulfide",665.4 mVolts
same,mVolts,"[2]; Volume 4.6 of 1.0M MnCl2, ~200 mM sulfide",661.8 mVolts
same,mVolts,"[2]; Volume 5.0 of 1.0M MnCl2, ~200 mM sulfide",657.1 mVolts
same,total sulfide ion concentrations in the rumen fluid versus BaCl2 and CaCl2,[2]; ~200 mM sulfide,substantially lower total sulfide ion concentrations
same,mVolts,[3]; Vol 1M Na2S 0.0,533.2 mVolts
same,mVolts,[3]; Vol 1M Na2S 0.3,617.3 mVolts
same,mVolts,[3]; Vol 1M Na2S 0.5,631.2 mVolts
same,mVolts,[3]; Vol 1M Na2S 0.8,640.0 mVolts
same,mVolts,[3]; Vol 1M Na2S 1.1,641.8 mVolts
same,mVolts,[3]; Vol 1M Na2S 1.4,647.5 mVolts
same,mVolts,[3]; Vol 1M Na2S 1.7,649.0 mVolts
same,mVolts,[3]; Vol 1M Na2S 2.1,652.1 mVolts
same,mVolts,[3]; Vol 1M Na2S 2.3,653.0 mVolts
same,mVolts,[3]; Vol 1M Na2S 2.6,652.6 mVolts
same,mVolts,[3]; Vol 1M Na2S 2.9,658.0 mVolts
same,mVolts,[3]; Vol 1M Na2S 3.2,667.2 mVolts
same,mVolts,[3]; Vol 1M Na2S 3.4,678.8 mVolts
same,mVolts,[3]; Vol 1M Na2S 3.5,691.3 mVolts
same,mVolts,[3]; Vol 1M Na2S 3.6,710.6 mVolts
same,mVolts,[3]; Vol 1M Na2S 3.8,742.0 mVolts
same,mVolts,[3]; Vol 1M Na2S 3.9,770.9 mVolts
same,mVolts,[3]; Vol 1M Na2S 4.0,783.4 mVolts
same,mVolts,[3]; Vol 1M Na2S 4.1,804.1 mVolts
same,mVolts,[3]; Vol 1M Na2S 4.2,820.2 mVolts
same,mVolts,[3]; Vol 1M Na2S 4.3,837.8 mVolts
same,mVolts,[3]; Vol 1M Na2S 4.4,851.7 mVolts
same,mVolts,[3]; Vol 1M Na2S 4.5,863.4 mVolts
same,mVolts,[3]; Vol 1M Na2S 4.7,877.0 mVolts
same,mVolts,[3]; Vol 1M Na2S 4.8,883.6 mVolts
same,mVolts,[3]; Vol 1M Na2S 4.9,888.2 mVolts
same,mVolts,[3]; Vol 1M Na2S 5.0,893.2 mVolts
same,precipitating sulfide ion versus MnO(II) and MnO2(IV),[3]; rumen fluid titrated with 1.0M Na2S,much more effective in precipitating sulfide ion
same,ADG (average daily gain),[4],3.58 lb/head/day
same,DMI (dry matter intake),[4],23.18 lb/head/day
same,End wt.,[4],1147.5 lb
same,Feed Efficiency (DM/gain),[4],6.48
